The text below walks through data of US20250282799A1, “SUBSTITUTED PYRIDO[4,3-d]PYRIMIDINES AS KRAS MODULATORS” (Alterome Therapeutics, Inc., priority 2023, published 2025).

Where only a bound is given, the exact number is not on record here.

The term IC50 denotes the midpoint of a concentration-inhibition curve. Read a high IC50 as a need for much substance.

In the test the test system is KRAS G12V dependent lung adenocarcinoma cell line, NCI-H441. In words: Cellular pERK (Thr202/Tyr204) FRET/HTRF assay. In kind it is cell-based. As to conditions: Homo sapiens, NCI-H441, cellular pERK (Thr202/Tyr204) HTRF, NCI-H441 cells. Summed up: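 Using a mix-and-read HTRF kit, phospho-ERK (Thr202/Tyr204) was detected in NCI-H441 lysates following 1 hr compound incubation at 37 °C, 5% CO2. Cells had been seeded overnight beforehand, and IC50 was derived by curve fitting.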
(In general: In TR-FRET formats the signal depends on donor and acceptor labels being close together.)

With `[2H]c1cc2cc(N)cc(-c3ncc4c(N5CCOC[C@H]6[C@H](F)[C@H]65)nc(OC([2H])([2H])[C@@]56CCCN5C[C@H](F)C6)nc4c3F)c2c(C#C)c1F` [Example 256, 5-ethynyl-6-fluoro-4-(8-fluoro-4-((1S,7S,8S)-8-fluoro-5-oxa-2-azabicyclo[5.1.0]octan-2-yl)-2-(((2R,7aS)-2-fluorotetrahydro-1H-pyrrolizin-7a(5H)-yl)methoxy-d2)pyrido[4,3-d]pyrimidin-7-yl)naphthalen-7-d-2-amine], the IC50 is below 50 nM. Regarding `C#Cc1c(F)ccc2cc(N)cc(-c3ncc4c(N5CCOC[C@H]6[C@H](F)[C@H]65)nc(OC[C@]56C[C@@H](F)CN5C[C@@H](CNC(C)=O)C6)nc4c3F)c12` [Example 257, N-(((2R,6R,7aS)-7a-(((7-(3-amino-8-ethynyl-7-fluoronaphthalen-1-yl)-8-fluoro-4-((1S,7S,8S)-8-fluoro-5-oxa-2-azabicyclo[5.1.0]octan-2-yl)pyrido[4,3-d]pyrimidin-2-yl)oxy)methyl)-6-fluorohexahydro-1H-pyrrolizin-2-yl)methyl)acetamide], the half-maximal inhibitory concentration (IC50) is 50 to 500 nM. As for `C#Cc1c(F)ccc2cc(N)cc(-c3ncc4c(N5CCOC[C@H]6[C@H](F)[C@H]65)nc(OC[C@]56C[C@@H](F)CN5C[C@@H](CN)C6)nc4c3F)c12` [Example 258, 4-(2-(((2R,6R,7aS)-2-(aminomethyl)-6-fluorotetrahydro-1H-pyrrolizin-7a(5H)-yl)methoxy)-8-fluoro-4-((1S,7S,8S)-8-fluoro-5-oxa-2-azabicyclo[5.1.0]octan-2-yl)pyrido[4,3-d]pyrimidin-7-yl)-5-ethynyl-6-fluoronaphthalen-2-amine], the IC50 lay in the range of 50 to 500 nM. Regarding `C#Cc1c(F)ccc2cc(N)cc(-c3ncc4c(N5CCOC[C@H]6[C@H](F)[C@H]65)nc(OC[C@@]56CC[C@H](C)N5C[C@H](F)C6)nc4c3F)c12` [Example 259, 5-Ethynyl-6-fluoro-4-(8-fluoro-2-(((2R,5S,7aS)-2-fluoro-5-methyltetrahydro-1H-pyrrolizin-7a(5H)-yl)methoxy)-4-((1S,7S,8S)-8-fluoro-5-oxa-2-azabicyclo[5.1.0]octan-2-yl)pyrido[4,3-d]pyrimidin-7-yl)naphthalen-2-amine], the 50% inhibitory concentration (IC50) is below 50 nM. Regarding `[2H]C([2H])(Oc1nc(N2CCOC[C@H]3[C@H](F)[C@H]32)c2cnc(-c3cc(N)cc4ccc(F)c(C#C)c34)cc2n1)[C@@]12CCCN1C[C@H](F)C2` [Example 261, 5-ethynyl-6-fluoro-4-(4-((1S,7S,8S)-8-fluoro-5-oxa-2-azabicyclo[5.1.0]octan-2-yl)-2-(((2R,7aS)-2-fluorotetrahydro-1H-pyrrolizin-7a(5H)-yl)methoxy-d2)pyrido[4,3-d]pyrimidin-7-yl)naphthalen-2-amine], the IC50 is below 50 nM. `C#Cc1c(F)ccc2cc(N)cc(-c3ncc4c(N5CCOC[C@H]6[C@H](F)[C@H]65)nc(OC[C@@]56CCCN5C(C)(C)[C@H](F)C6)nc4c3F)c12` [Example 262, 5-ethynyl-6-fluoro-4-(8-fluoro-2-(((2R,7aS)-2-fluoro-3,3-dimethyltetrahydro-1H-pyrrolizin-7a(5H)-yl)methoxy)-4-((1S,7S,8S)-8-fluoro-5-oxa-2-azabicyclo[5.1.0]octan-2-yl)pyrido[4,3-d]pyrimidin-7-yl)naphthalen-2-amine] came in with an IC50 below 50 nM. As for `[2H]C([2H])(Oc1nc(N2CCOC[C@H]3[C@H](F)[C@H]32)c2cnc(-c3cc(NC(C)=O)cc4ccc(F)c(C#C)c34)c(F)c2n1)[C@@]12CCCN1C[C@H](F)C2` [Example 263, N-(5-ethynyl-6-fluoro-4-(8-fluoro-4-((1S,7S,8S)-8-fluoro-5-oxa-2-azabicyclo[5.1.0]octan-2-yl)-2-(((2R,7aS)-2-fluorotetrahydro-1H-pyrrolizin-7a(5H)-yl)methoxy-d2)pyrido[4,3-d]pyrimidin-7-yl)naphthalen-2-yl)acetamide], the figure is 50 to 500 nM; as for `[2H]c1cc(F)c(C#C)c2c(-c3ncc4c(N5CCOC[C@H]6[C@H](F)[C@H]65)nc(OC([2H])([2H])[C@@]56CCCN5C[C@H](F)C6)nc4c3F)cc(N)cc12` [Example 264, 5-ethynyl-6-fluoro-4-(8-fluoro-4-((1S,7S,8S)-8-fluoro-5-oxa-2-azabicyclo[5.1.0]octan-2-yl)-2-(((2R,7aS)-2-fluorotetrahydro-1H-pyrrolizin-7a(5H)-yl)methoxy-d2)pyrido[4,3-d]pyrimidin-7-yl)naphthalen-8-d-2-amine], below 50 nM; as for `[2H]C([2H])(Oc1nc(N2CCOC[C@H]3[C@H](F)[C@H]32)c2cnc(-c3cc(N)cc4cccc(C#C)c34)c(F)c2n1)[C@@]12CCCN1C[C@H](F)C2` [Example 268, 5-ethynyl-4-(8-fluoro-4-((1S,7S,8S)-8-fluoro-5-oxa-2-azabicyclo[5.1.0]octan-2-yl)-2-(((2R,7aS)-2-fluorotetrahydro-1H-pyrrolizin-7a(5H)-yl)methoxy-d2)pyrido[4,3-d]pyrimidin-7-yl)naphthalen-2-amine], below 50 nM. Compound `[2H]C([2H])(Oc1nc(N2CCOC[C@H]3[C@H](F)[C@H]32)c2cnc(-c3cc(N)cc4ccc(F)c(C#C)c34)c(Cl)c2n1)[C@@]12CCCN1C[C@H](F)C2` [Example 269, 4-(8-Chloro-4-((1S,7S,8S)-8-fluoro-5-oxa-2-azabicyclo[5.1.0]octan-2-yl)-2-(((2R,7aS)-2-fluorotetrahydro-1H-pyrrolizin-7a(5H)-yl)methoxy-d2)pyrido[4,3-d]pyrimidin-7-yl)-5-ethynyl-6-fluoronaphthalen-2-amine] had an IC50 below 50 nM. Take `[2H]C([2H])(Oc1nc(N2CCOC[C@H]3[C@H](F)[C@H]32)c2cnc(-c3cc(N)c(F)c(C4CC4)c3C(F)(F)F)c(F)c2n1)[C@@]12CCCN1C[C@H](F)C2` [Example 270, 3-cyclopropyl-2-fluoro-5-(8-fluoro-4-((1S,7S,8S)-8-fluoro-5-oxa-2-azabicyclo[5.1.0]octan-2-yl)-2-(((2R,7aS)-2-fluorotetrahydro-1H-pyrrolizin-7a(5H)-yl)methoxy-d2)pyrido[4,3-d]pyrimidin-7-yl)-4-(trifluoromethyl)aniline]: the IC50 lay in the range of 50 to 500 nM. Regarding `[2H]C([2H])(Oc1nc(N2CCOC[C@H]3[C@H](F)[C@H]32)c2cnc(-c3c(F)c(N)cc(C)c3C(F)(F)F)c(F)c2n1)[C@@]12CCCN1C[C@H](F)C2` [Example 271, 2-fluoro-3-(8-fluoro-4-((1S,7S,8S)-8-fluoro-5-oxa-2-azabicyclo[5.1.0]octan-2-yl)-2-(((2R,7aS)-2-fluorotetrahydro-1H-pyrrolizin-7a(5H)-yl)methoxy-d2)pyrido[4,3-d]pyrimidin-7-yl)-5-methyl-4-(trifluoromethyl)aniline], the IC50 lay in the range of 50 to 500 nM. `[2H]C([2H])(Oc1nc(N2CCOC[C@H]3[C@H](F)[C@H]32)c2cnc(-c3cc(N)cc(Cl)c3C(F)(F)F)c(F)c2n1)[C@@]12CCCN1C[C@H](F)C2` [Example 272, 3-chloro-5-(8-fluoro-4-((1S,7S,8S)-8-fluoro-5-oxa-2-azabicyclo[5.1.0]octan-2-yl)-2-(((2R,7aS)-2-fluorotetrahydro-1H-pyrrolizin-7a(5H)-yl)methoxy-d2)pyrido[4,3-d]pyrimidin-7-yl)-4-(trifluoromethyl)aniline] registered an IC50 below 50 nM.
